Results: paper PMC4925259 (Molecular microbiology, 2016)

Molecular target: cytochrome bo oxidase (Escherichia coli, UniProt P0ABI8)
Type: biochemical

Chain of cytochrome bo oxidase (P0ABI8 whole entry): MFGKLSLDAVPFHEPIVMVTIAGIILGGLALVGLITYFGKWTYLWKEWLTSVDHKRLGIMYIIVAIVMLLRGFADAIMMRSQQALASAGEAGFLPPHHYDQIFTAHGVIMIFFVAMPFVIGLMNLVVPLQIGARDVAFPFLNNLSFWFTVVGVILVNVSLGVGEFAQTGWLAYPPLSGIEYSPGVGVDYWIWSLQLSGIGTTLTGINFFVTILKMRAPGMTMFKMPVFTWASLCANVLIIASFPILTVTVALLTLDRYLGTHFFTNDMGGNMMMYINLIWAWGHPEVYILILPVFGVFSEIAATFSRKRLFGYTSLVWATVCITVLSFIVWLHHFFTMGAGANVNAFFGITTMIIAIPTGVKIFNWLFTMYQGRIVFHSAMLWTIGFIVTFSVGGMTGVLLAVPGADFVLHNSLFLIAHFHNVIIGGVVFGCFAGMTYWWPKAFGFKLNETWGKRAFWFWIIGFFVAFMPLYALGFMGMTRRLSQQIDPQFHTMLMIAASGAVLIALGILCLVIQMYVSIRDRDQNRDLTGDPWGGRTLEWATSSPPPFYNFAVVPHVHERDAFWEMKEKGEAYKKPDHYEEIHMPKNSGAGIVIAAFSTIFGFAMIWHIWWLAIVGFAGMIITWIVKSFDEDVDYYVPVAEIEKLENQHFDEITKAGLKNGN
Chain of cytochrome bo oxidase (P0ABJ1 25-315 partner): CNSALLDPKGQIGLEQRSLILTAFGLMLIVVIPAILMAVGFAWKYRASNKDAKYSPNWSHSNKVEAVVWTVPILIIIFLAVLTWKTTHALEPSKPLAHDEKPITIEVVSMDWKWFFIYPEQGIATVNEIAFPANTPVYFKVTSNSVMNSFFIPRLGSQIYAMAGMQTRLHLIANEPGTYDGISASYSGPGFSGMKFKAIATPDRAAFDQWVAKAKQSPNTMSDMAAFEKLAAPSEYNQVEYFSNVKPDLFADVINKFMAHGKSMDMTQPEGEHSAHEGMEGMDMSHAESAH
Chain of cytochrome bo oxidase (P0ABJ3 whole entry partner): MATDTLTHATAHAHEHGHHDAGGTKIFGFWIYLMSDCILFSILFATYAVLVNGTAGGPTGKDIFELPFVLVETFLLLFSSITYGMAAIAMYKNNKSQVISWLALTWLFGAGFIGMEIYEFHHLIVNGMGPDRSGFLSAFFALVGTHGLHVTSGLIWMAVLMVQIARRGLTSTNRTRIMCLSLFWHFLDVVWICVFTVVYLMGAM
Chain of cytochrome bo oxidase (P0ABJ6 whole entry partner): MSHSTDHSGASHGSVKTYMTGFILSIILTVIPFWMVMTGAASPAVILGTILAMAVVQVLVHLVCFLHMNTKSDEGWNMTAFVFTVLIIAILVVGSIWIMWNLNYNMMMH

## S [hydrogen sulfide]
  IC50: ~5 µM
